The values that follow come from US8455475B2 (Gruenenthal GmbH, priority 2009, dated 2013).

The target in assay [1] is T1, rat B1R (bradykinin receptor 1) (Rattus norvegicus, UniProt P97583).
T1 construct: expressed in transfected cells; host or cells: CHO K1 cells
T1 sequence (P97583 1-337): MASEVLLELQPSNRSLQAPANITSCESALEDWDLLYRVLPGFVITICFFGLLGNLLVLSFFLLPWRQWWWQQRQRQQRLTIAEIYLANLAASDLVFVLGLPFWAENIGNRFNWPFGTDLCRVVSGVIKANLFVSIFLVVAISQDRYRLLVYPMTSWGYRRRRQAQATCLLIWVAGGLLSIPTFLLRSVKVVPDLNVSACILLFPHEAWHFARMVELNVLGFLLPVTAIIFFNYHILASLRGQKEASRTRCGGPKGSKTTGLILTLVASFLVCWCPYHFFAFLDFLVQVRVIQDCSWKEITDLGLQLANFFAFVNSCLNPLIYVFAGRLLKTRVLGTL
Put plainly: FLIPR Ca2+ assay (Fluo-4) on CHO K1 cells stably transfected with the B1R gene of the rat (rB1R cells): % inhibition at 10 μM / IC50, agonist Des-Arg9-bradykinin. To be noted: for inhibition at 10 µM: CHO-K1, rat B1R. The assay is classed as cell-based. The method, boiled down:
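Cells were Fluo-4-loaded, then test compound (10 μM, or a concentration series for IC50) was preincubated 10–20 min before agonist challenge at EC80: Lys-Des-Arg9-bradykinin for hB1R, Des-Arg9-bradykinin for rB1R. Peak Ca2+ fluorescence (ex 488/em 540 nm) gave % inhibition versus maximal achievable inhibition.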

The target in assay [2] is T2, human B1R (bradykinin receptor 1) (Homo sapiens, UniProt P46663).
T2 construct: expressed in transfected cells; host or cells: CHO K1 cells
T2 sequence (P46663 1-353): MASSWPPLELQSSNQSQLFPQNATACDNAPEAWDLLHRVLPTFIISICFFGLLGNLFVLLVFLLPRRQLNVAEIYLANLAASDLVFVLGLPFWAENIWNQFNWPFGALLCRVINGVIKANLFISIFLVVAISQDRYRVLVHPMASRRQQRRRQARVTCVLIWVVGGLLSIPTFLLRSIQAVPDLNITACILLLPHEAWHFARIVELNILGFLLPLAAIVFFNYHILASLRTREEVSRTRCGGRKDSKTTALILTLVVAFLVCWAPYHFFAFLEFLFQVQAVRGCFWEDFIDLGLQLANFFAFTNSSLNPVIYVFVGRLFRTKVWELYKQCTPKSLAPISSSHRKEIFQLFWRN
The assay can be described thus: FLIPR Ca2+ assay (Fluo-4) on CHO K1 cells stably transfected with the human B1R gene (hB1R cells): % inhibition at 10 μM / IC50, agonist Lys-Des-Arg9-bradykinin. The assay is classed as cell-based. The conditions noted are these: for inhibition at 10 µM: CHO-K1, human B1R. As for the experimental part: The agonistic or antagonistic action of substances can be quantified on the bradykinin receptor 1 (B1R) of the human and rat species with ectopically expressing cell lines (CHO K1 cells) and with the aid of a Ca^2+-sensitive dyestuff (Fluo-4) in a fluorescent imaging plate reader (FLIPR). The figure in % activation is based on the Ca^2+ signal after addition of Lys-Des-Arg^9-bradykinin (0.5 nM) or Des-Arg^9-bradykinin (100 nM). Antagonists lead to a suppression of the Ca^2+ inflow after addition of the agonist. % inhibition compared with the maximum achievable inhibition is stated.
The agonistic or antagonistic action of substances can be determined on the bradykinin receptor 1 (B1R) of the human and rat species with the following assay. In accordance with this assay, the Ca^2+ inflow through the channel is quantified with the aid of a Ca^2+-sensitive dyestuff (type Fluo-4, Molecular Probes Europe BV, Leiden, Holland) in a fluorescent imaging plate reader (FLIPR, Molecular Devices, Sunnyvale, USA).
Chinese hamster ovary cells (CHO K1 cells) transfected stably with the human B1R gene (hB1R cells) or the B1R gene of the rat (rB1R cells) are used. For functional studies, these cells are plated out on black 96-well plates with a clear base (BD Biosciences, Heidelberg, Germany or Greiner, Frickenhausen, Germany) in a density of 20,000-35,000 cells/well. The cells are left overnight at 37° C. and 5% CO2 in culture medium (hB1R cells: Nutrient Mixture Ham's F12, Gibco Invitrogen GmbH, Karlsruhe, Germany or DMEM, Sigma-Aldrich, Taufkirchen, Germany; rB1R cells: D-MEM/F12, Gibco Invitrogen GmbH, Karlsruhe, Germany) with 10 vol. % FBS (foetal bovine serum, Gibco Invitrogen GmbH, Karlsruhe, Germany or PAN Biotech GmbH, Aidenbach, Germany). On the following day, the cells are loaded for 60 min at 37° C. with 2.13 μM Fluo-4 (Molecular Probes Europe BV, Leiden Holland) in HBSS buffer (Hank's buffered saline solution, Gibco Invitrogen GmbH, Karlsruhe, Germany) with 2.5 mM probenecid (Sigma-Aldrich, Taufkirchen, Germany) and 10 mM HEPES (Sigma-Aldrich, Taufkirchen, Germany). The plates are then washed 2× with HBSS buffer, and HBSS buffer which additionally contains 0.1% BSA (bovine serum albumin; Sigma-Aldrich, Taufkirchen, Germany), 5.6 mM glucose and 0.05% gelatine (Merck KGaA, Darmstadt, Germany) is added. After a further incubation of 20 minutes at room temperature, the plates are inserted into the FLIPR for the Ca^2+ measurement. Alternatively, the plates are washed with buffer A (15 mM HEPES, 80 mM NaCl, 5 mM KCl, 1.2 mM CaCl2, 0.7 mM MgSO4, 2 g/l glucose, 2.5 mM probenecid), buffer A is added and the plates are loaded with 2.5 μM Fluo-4 and 0.025% Pluronic F127 (Sigma-Aldrich, Taufkirchen, Germany). Thereafter, the cells are washed 2× with buffer A and incubated for 30 minutes at room temperature with buffer A, which additionally contains 0.05% BSA and 0.05% gelatine, and thereafter inserted into the FLIPR for the Ca^2+ measurement. The Ca^2+-dependent fluorescence is measured here before and after addition of substances (λex=488 nm, λem=540 nm). Quantification is by measurement of the highest fluorescence intensity (FC, fluorescence counts) over time.
The FLIPR protocol consists of 2 additions of substance. Test substances (10 μM) are first pipetted on to the cells and the Ca^2+ inflow is compared with the control (hB1R: Lys-Des-Arg^9-bradykinin>=50 nM; rB1R: Des-Arg^9-bradykinin 10 μM). This gives the result in % activation based on the Ca^2+ signal after addition of Lys-Des-Arg^9-bradykinin (>=50 nM) or Des-Arg^9-bradykinin (10 μM). After incubation for 10-20 minutes, Lys-Des-Arg^9-bradykinin (hB1R) or Des-Arg^9-bradykinin (rB1R) in the concentration of the EC80 is applied and the inflow of Ca^2+ is likewise determined. Antagonists lead to a suppression of the Ca^2+ inflow. % inhibition compared with the maximum achievable inhibition is calculated.
For determination of the IC50 value, the substances are added in various concentrations. […]

What is called inhibition is the change of the read-out against control, counted positive when it falls. Turning to `COc1ccc(C(=O)N(C)C2CCc3ccc(C(=O)N4CCC5(CC4)CCN(c4ccncc4)CC5)cc32)c(F)c1` (stereo not shown) [IND_CC-296, 2-Fluoro-4-methoxy-N-methyl-N-[6-(9-pyridin-4-yl-3,9-diazaspiro[5.5]undecane-3-carbonyl)-2,3-dihydro-1H-inden-1-yl]-benzamide], the inhibition at 10 µM in assay [1] worked out at 103%; in assay [2], 59%.

For `O=C(c1ccc2c(c1)C(NS(=O)(=O)Cc1ccccc1C(F)(F)F)CC2)N1CCC2(CC1)CCN(c1ccncc1)CC2` (stereo not shown) [IND_CC-236, N-[6-(9-Pyridin-4-yl-3,9-diazaspiro[5.5]undecane-3-carbonyl)-2,3-dihydro-1H-inden-1-yl]-1-[2-(trifluoromethyl)-phenyl]-methanesulfonic acid amide], the inhibition at 10 µM in assay [1] was 96%; in assay [2], 98%.

On to `O=C(N[C@@H]1CCc2ccc(C(=O)N3CCC4(CC3)CCN(c3ccncc3)C4)cc21)c1cncnc1` [Example H-86, N-[(1R)-6-(3-Pyridin-4-yl-3,8-diazaspiro[4.5]decane-8-carbonyl)-2,3-dihydro-1H-inden-1-yl]-pyrimidine-5-carboxylic acid amide], for which the inhibition at 10 µM in assay [1] is 79%; in assay [2], 95%.

Turning to `O=C(c1ccc2c(c1)[C@H](NS(=O)(=O)c1c(Cl)cccc1C(F)(F)F)CC2)N1CCC2(CCN(c3ccncc3)CC2)C1` [Example H-149, 2-Chloro-N-[(1R)-6-(8-pyridin-4-yl-3,8-diazaspiro[4.5]decane-3-carbonyl)-2,3-dihydro-1H-inden-1-yl]-6-(trifluoromethyl)-benzenesulfonic acid amide], the inhibition at 10 µM in assay [1] amounted to 103%; in assay [2], 100%.

For the compound `Cc1ccccc1S(=O)(=O)N[C@@H]1CCc2ccc(C(=O)N3CCC4(CCN(c5ccncc5)CC4)C3)cc21` [Example H-117, 2-Methyl-N-[(1R)-6-(8-pyridin-4-yl-3,8-diazaspiro[4.5]decane-3-carbonyl)-2,3-dihydro-1H-inden-1-yl]-benzensulfonic acid amide], the figures for the inhibition at 10 µM in assay [1] and in assay [2] were 101% and 100%, respectively.

As to “2-Chloro-N-[2,2-dimethyl-6-(9-pyridin-4-yl-3,9-diazaspiro[5.5]undecane-3-carbonyl)-1,3-dihydro-inden-1-yl]-3-(trifluoromethyl)-benzamide [IND_CC-234]”, the “% Inhibition (rat B1R) at 10 μM” value in assay [1] (rat B1R) came out at 99%. Also, the “% Inhibition (human B1R) at 10 μM” value in assay [2] (human B1R) stood at 85%.

In the case of `O=C(c1ccc2c(c1)[C@H](NS(=O)(=O)c1ccccc1Cl)CC2)N1CCC2(CCN(c3ccncc3)CC2)C1` [Example H-105, 2-Chloro-N-[(1R)-6-(8-pyridin-4-y-3,8-diazaspiro[4.5]decane-3-carbonyl)-2,3-dihydro-1H-inden-1-yl]-benzenesulfonic acid amide], the figures for the inhibition at 10 µM in assay [1] and in assay [2] were 107% and 100%, respectively.

Consider `O=C(N[C@@H]1CCCc2cc(F)c(C(=O)N3CCC4(CCN(c5ccncc5)CC4)C3)cc21)c1ccccc1Cl` [Example H-82, 2-Chloro-N-[(1R)-6-fluoro-7-(8-pyridin-4-yl-3,8-diazaspiro[4.5]decane-3-carbonyl)-1,2,3,4-tetrahydro-naphthalen-1-yl]-benzamide], for which the inhibition at 10 µM in assay [1] is 104%; in assay [2] it was 100%.

For the compound `O=C(NC1CCc2ccc(C(=O)N3CCC4(CCN(c5ccc(C(F)(F)F)cn5)CC4)C3)cc21)c1ccccc1Cl` (stereo not shown) [Example H-48, 2-chloro-N-[6-[8-[5-(trifluoromethyl)-pyridin-2-yl]-3,8-diazaspiro[4.5]decane-3-carbonyl]-2,3-dihydro-1H-inden-1-yl]-benzamide], the inhibition at 10 µM in assay [1] turned out to be 97%; in assay [2], 63%.

Consider `O=C(N[C@H]1CCc2cc(C(=O)N3CCC4(CC3)CCN(c3ccncc3)CC4)ccc21)c1ccccc1Cl` [Example H-156, 2-Chloro-N-[(1S)-5-(9-pyridin-4-yl-3,9-diazaspiro[5.5]undecane-3-carbonyl)-2,3-dihydro-1H-inden-1-yl]-benzamide], for which the inhibition at 10 µM in assay [1] was found to be 75%; in assay [2], 24%.

For the compound `COc1ccc(C(=O)N[C@@H]2CCc3ccc(C(=O)N4CCC5(CCN(c6ccncc6)CC5)C4)cc32)c(Cl)c1` [Example H-63, 2-Chloro-4-methoxy-N-[(1R)-6-(8-pyridin-4-yl-3,8-diazaspiro[4.5]decane-3-carbonyl)-2,3-dihydro-1H-inden-1-yl]-benzamide], the inhibition at 10 µM in assay [1] was 104%; in assay [2] it was 100%.

`CC1(C)Cc2ccc(C(=O)N3CCC4(CCN(c5ccncc5)CC4)C3)cc2C1NC(=O)c1ccccc1Cl` (stereo not shown) [Example H-47, 2-chloro-N-[2,2-dimethyl-6-(8-pyridin-4-yl-3,8-diazaspiro[4.5]decane-3-carbonyl)-1,3-dihydro-inden-1-yl]-benzamide]: the inhibition at 10 µM in assay [1] was found to be 101%; in assay [2], 99%.

As to `O=C(NC1CCc2ccc(C(=O)N3CCC4(CCN(c5ccncc5)CC4)C3)cc21)c1cc(C(F)(F)F)ccc1Cl` (stereo not shown) [IND_CC-251, 2-Chloro-N-[6-(8-pyridin-4-yl-2,8-diazaspiro[4.5]decane-2-carbonyl)-2,3-dihydro-1H-inden-1-yl]-5-(trifluoromethyl)-benzamide], the inhibition at 10 µM in assay [1] came to 99%; in assay [2], 100%.

With `O=C(NC1CCc2ccc(C(=O)N3CCC4(CCC(n5ccnc5)CC4)CC3)cc21)c1ccccc1Cl` (stereo not shown) [Example H-131, 2-Chloro-N-[6-[9-(1H-imidazol-1-yl)-3-azaspiro[5.5]undecane-3-carbonyl]-2,3-dihydro-1H-inden-1-yl]-benzamide], the inhibition at 10 µM worked out at 102% in assay [1] and 74% in assay [2].
